Data published in ChEMBL document CHEMBL1201862, “PubChem BioAssay data set” (2004).
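Briefly, cells in 96-well plates were exposed to five compound concentrations for 48 h, and endpoints were estimated by linear interpolation. Abbreviation: GI50, concentration required for 50% inhibition of growth.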 Activity calls are given as the source filed them. Cut-off read from the data, not from the text of the source: active = GI50 up to about 1.1 µM and inactive = higher.

Assays:
Assay in all cases: NCI anticancer screen, dose series, 48 h
[1] = system: ACHN
[2] = system: COLO 205
[3] = system: EKVX
[4] = system: HCT-116
[5] = system: Hs-578T
[6] = system: LOX IMVI
[7] = system: MCF7
[8] = system: MDA-MB-435
[9] = system: NCI-H460
[10] = system: OVCAR-3
[11] = system: RPMI-8226
[12] = system: SK-MEL-2
[13] = system: SK-MEL-5
[14] = system: SK-OV-3
[15] = system: SN12C
[16] = system: SNB-19
[17] = system: SR
[18] = system: UO-31
[19] = system: SF-539

SMILES	GI50 [1]	GI50 [2]	GI50 [3]	GI50 [4]	GI50 [5]	GI50 [6]	GI50 [7]	GI50 [8]	GI50 [9]	GI50 [10]	GI50 [11]	GI50 [12]	GI50 [13]	GI50 [14]	GI50 [15]	GI50 [16]	GI50 [17]	GI50 [18]	GI50 [19]
CCOC(=O)c1c(N)sc2c1CC(C)CC2 (stereo unspecified)	39.9 µM (inactive)	27.9 µM (inactive)	32.6 µM (inactive)	47.6 µM (inactive)	43.7 µM (inactive)	42.2 µM (inactive)	32.9 µM (inactive)	41.2 µM (inactive)	35.6 µM (inactive)	46.1 µM (inactive)	30 µM (inactive)	31.9 µM (inactive)	19.2 µM (inactive)	47.6 µM (inactive)	44.4 µM (inactive)	31 µM (inactive)	28.6 µM (inactive)	32.3 µM (inactive)	–
Cc1c2ccccc2nc2[nH]c3ccncc3c12	18.7 µM (inactive)	40.4 µM (inactive)	13.9 µM (inactive)	–	50.7 µM (inactive)	20.6 µM (inactive)	–	33 µM (inactive)	15.4 µM (inactive)	30.3 µM (inactive)	21 µM (inactive)	40.7 µM (inactive)	29.4 µM (inactive)	50 µM (inactive)	13.1 µM (inactive)	36.1 µM (inactive)	26.9 µM (inactive)	25.9 µM (inactive)	36.8 µM (inactive)
CCCNC1=Nc2ccccc2N(Cc2ccccc2)CC1	23.2 µM (inactive)	10.9 µM (inactive)	30.5 µM (inactive)	29.7 µM (inactive)	14.9 µM (inactive)	–	–	19.1 µM (inactive)	13.4 µM (inactive)	32.4 µM (inactive)	12.9 µM (inactive)	17 µM (inactive)	15 µM (inactive)	28.2 µM (inactive)	31.5 µM (inactive)	22.2 µM (inactive)	–	30.3 µM (inactive)	–
CC1=C(C(=O)OCCO[N+](=O)[O-])C(c2ccccc2C(F)(F)F)C(C(=O)OC(C)C)=C(C)N1 (stereo unspecified)	25.7 µM (inactive)	14 µM (inactive)	24.6 µM (inactive)	9.84 µM (inactive)	–	13.9 µM (inactive)	16 µM (inactive)	16.6 µM (inactive)	10.7 µM (inactive)	10.5 µM (inactive)	5.12 µM (inactive)	12.8 µM (inactive)	10 µM (inactive)	39.6 µM (inactive)	16.8 µM (inactive)	18.2 µM (inactive)	41.7 µM (inactive)	11.3 µM (inactive)	17.3 µM (inactive)
CC(C)(C)C(=O)N1CCN(C=O)C1=S	57.9 µM (inactive)	> 100 µM (inactive)	> 100 µM (inactive)	> 100 µM (inactive)	58.5 µM (inactive)	34.2 µM (inactive)	15.6 µM (inactive)	35.9 µM (inactive)	> 100 µM (inactive)	38.2 µM (inactive)	24.8 µM (inactive)	> 100 µM (inactive)	–	> 100 µM (inactive)	36.8 µM (inactive)	> 100 µM (inactive)	–	0.0693 µM (active)	> 100 µM (inactive)
S=c1[nH]nc(COc2ccc3c(c2)CCCC3)n1/N=C/c1ccc(Cl)cc1	20.1 µM (inactive)	16.6 µM (inactive)	19.1 µM (inactive)	14.5 µM (inactive)	21.6 µM (inactive)	20.2 µM (inactive)	11.8 µM (inactive)	19.3 µM (inactive)	15.8 µM (inactive)	16 µM (inactive)	17.3 µM (inactive)	18.2 µM (inactive)	15.7 µM (inactive)	18.1 µM (inactive)	22.8 µM (inactive)	19.5 µM (inactive)	–	17.1 µM (inactive)	17.6 µM (inactive)
Oc1cccc2c(Cl)ccnc12	1.99 µM (inactive)	14.3 µM (inactive)	11.7 µM (inactive)	0.279 µM (active)	7.93 µM (inactive)	0.384 µM (active)	1.11 µM (active)	2.67 µM (inactive)	3.08 µM (inactive)	0.287 µM (active)	0.499 µM (active)	–	1.22 µM (inactive)	32.9 µM (inactive)	1.2 µM (inactive)	23 µM (inactive)	0.243 µM (active)	1.37 µM (inactive)	2.11 µM (inactive)
O=C(/N=N/c1ccc(Br)cc1)NNc1ccc(Br)cc1	–	23 µM (inactive)	–	17.5 µM (inactive)	> 10 µM (inactive)	–	18.2 µM (inactive)	19.8 µM (inactive)	21.9 µM (inactive)	16.8 µM (inactive)	23.8 µM (inactive)	19.1 µM (inactive)	13.9 µM (inactive)	29 µM (inactive)	–	39.8 µM (inactive)	28.6 µM (inactive)	22.9 µM (inactive)	–
O=c1[nH]nc(NNc2ccccc2)c2nnn(C3CCCCC3)c12	> 100 µM (inactive)	> 100 µM (inactive)	> 100 µM (inactive)	> 100 µM (inactive)	–	> 100 µM (inactive)	> 100 µM (inactive)	> 100 µM (inactive)	77.6 µM (inactive)	> 100 µM (inactive)	> 100 µM (inactive)	> 100 µM (inactive)	> 100 µM (inactive)	–	> 100 µM (inactive)	> 100 µM (inactive)	> 100 µM (inactive)	> 100 µM (inactive)	–
C/C(=C/C(=O)N(C)c1ccccc1Cl)O[Si](C(C)C)(C(C)C)C(C)C	> 10 µM (inactive)	16.8 µM (inactive)	26.4 µM (inactive)	17.8 µM (inactive)	–	18.7 µM (inactive)	–	32.1 µM (inactive)	26.9 µM (inactive)	18.2 µM (inactive)	24.8 µM (inactive)	–	16.4 µM (inactive)	34.2 µM (inactive)	17 µM (inactive)	23.7 µM (inactive)	–	19.9 µM (inactive)	21.3 µM (inactive)
CN(C)Cc1cc(/C=C/C(=O)c2ccc(Cl)c(Cl)c2)cc(CN(C)C)c1O	12.8 µM (inactive)	11.2 µM (inactive)	15.6 µM (inactive)	12.8 µM (inactive)	–	–	12.9 µM (inactive)	5.32 µM (inactive)	10.4 µM (inactive)	10.3 µM (inactive)	13.4 µM (inactive)	14 µM (inactive)	11.7 µM (inactive)	21.8 µM (inactive)	13.5 µM (inactive)	15 µM (inactive)	–	6.46 µM (inactive)	6.92 µM (inactive)
CN(C)S(=O)(=O)n1cnc(CO)c1	> 100 µM (inactive)	> 100 µM (inactive)	> 100 µM (inactive)	> 100 µM (inactive)	–	> 100 µM (inactive)	> 100 µM (inactive)	> 100 µM (inactive)	> 100 µM (inactive)	> 100 µM (inactive)	> 100 µM (inactive)	> 100 µM (inactive)	> 100 µM (inactive)	> 100 µM (inactive)	> 100 µM (inactive)	> 100 µM (inactive)	–	> 100 µM (inactive)	> 100 µM (inactive)
CCCCN(CCCC)C1=Nc2ccccc2-n2c(nnc2C(=O)OCC)C1	38.3 µM (inactive)	18.5 µM (inactive)	71.9 µM (inactive)	27.4 µM (inactive)	> 100 µM (inactive)	38.8 µM (inactive)	37.2 µM (inactive)	38.5 µM (inactive)	22.7 µM (inactive)	37.2 µM (inactive)	26.1 µM (inactive)	–	15.1 µM (inactive)	68.4 µM (inactive)	51.1 µM (inactive)	91.2 µM (inactive)	19.1 µM (inactive)	31.8 µM (inactive)	44.4 µM (inactive)
Cc1cc(C)c(/C=C(\C(=C/c2c(C)cc(C)cc2C)[N+](=O)[O-])[N+](=O)[O-])c(C)c1	> 100 µM (inactive)	> 100 µM (inactive)	> 100 µM (inactive)	> 100 µM (inactive)	–	43.4 µM (inactive)	58.9 µM (inactive)	> 100 µM (inactive)	46.7 µM (inactive)	> 100 µM (inactive)	1.31 µM (inactive)	> 100 µM (inactive)	86.5 µM (inactive)	> 100 µM (inactive)	> 100 µM (inactive)	> 100 µM (inactive)	30.4 µM (inactive)	> 100 µM (inactive)	> 100 µM (inactive)
CNC(C)C(O)c1ccc2oc3cc(=O)c4ccccc4c-3nc2c1 (stereo unspecified)	6.25 µM (inactive)	35.9 µM (inactive)	40 µM (inactive)	5.24 µM (inactive)	2.26 µM (inactive)	4.1 µM (inactive)	18.9 µM (inactive)	1.97 µM (inactive)	4.67 µM (inactive)	11.9 µM (inactive)	18.9 µM (inactive)	4.69 µM (inactive)	2.48 µM (inactive)	40.1 µM (inactive)	10.6 µM (inactive)	6.44 µM (inactive)	–	13.8 µM (inactive)	1.45 µM (inactive)
COC(=O)C1(NC(=O)C(CC(=O)OCc2ccccc2)NC(=O)OCc2ccccc2)CCCCCCC1 (stereo unspecified)	34.4 µM (inactive)	25.8 µM (inactive)	45.4 µM (inactive)	27.9 µM (inactive)	45.6 µM (inactive)	28.2 µM (inactive)	31.8 µM (inactive)	29.9 µM (inactive)	30.7 µM (inactive)	60.1 µM (inactive)	5.56 µM (inactive)	–	13.8 µM (inactive)	40 µM (inactive)	36.6 µM (inactive)	49.5 µM (inactive)	5.35 µM (inactive)	35.6 µM (inactive)	49.7 µM (inactive)
CS(=O)(=O)OCC(CCl)(CCl)CCl	> 100 µM (inactive)	> 100 µM (inactive)	–	> 100 µM (inactive)	> 100 µM (inactive)	> 100 µM (inactive)	> 100 µM (inactive)	> 100 µM (inactive)	> 100 µM (inactive)	> 100 µM (inactive)	–	–	> 100 µM (inactive)	> 100 µM (inactive)	> 100 µM (inactive)	> 100 µM (inactive)	> 100 µM (inactive)	> 100 µM (inactive)	–
